In US4338320A, “Esters of 6'-hydroxycinchonine, and a method of treating arrythmia with them” (The Board of Regents of the University of Nebraska, priority 1978, dated 1982):
Entries after “also recorded” stand apart in the source; their conditions may differ. Read-outs that look alike come from different tables or passages of the source.

Assays:
Format in all cases: in vivo
[1] = test system: mice; test: Aconitine-induced arrhythmia in mice
Text: Aconitine was used to induce arrhythmia and a saline solution served as the control for a third group.
A dosage in the same range as that previously set forth for cupreidine was utilized with mice for the compounds 6-benzylcinchonine and 6'-allylcinchonine. Aconitine was used to induce arrhythmia and a saline solution was used with the control group.

[2] = test system: mice; test: Antiarrhythmic effective dose in mice (dose probit curve); conditions: for ED50: Mus musculus
Experimental: (§1) Mice were treated at varying dosage levels for both quinidine and cupreidine. A dose probit curve was generated for the effective dose and lethal dose of each compound. The respective ED50 and LD50 values were derived from those curves using techniques well known to those skilled in the art.

[3] = Lethal dose in mice (dose probit curve); conditions: mouse, in vivo; mice; from dose probit curve
Experimental: as §1

[4] = test system: mice; test: Lethal dose in mice (dose probit curve); conditions: result in words
Experimental: as §1

[5] = Table III, dosage in the same range as for cupreidine, saline control 160. ± 5
[6] = Table III, dosage in the same range as for cupreidine, saline control 186. ± 6
[7] = Table II, intraperitoneal, cupreidine about 20.6 to about 26.8 mg/kg, quinidine 19.5-25.8 mg/kg, saline control 193. ± 11

Structure (SMILES) | Onset of Arrhythmia (time in seconds) [1, 5] | Onset of Ventricular Tachycardia (time in seconds) [1, 6] | ED50 [2] | effectiveness as an antiarrhythmic agent, relative to quinidine ([2]; result in words) | LD50 [3] | toxicity relative to quinidine [4] | Onset of Arrhythmia (time in seconds) ([1]; Table II, intraperitoneal, cupreidine about 20.6 to about 26.8 mg/kg, quinidine 19.5-25.8 mg/kg, saline control 153. ± 5) | Onset of Ventricular Tachycardia (time in seconds) [1, 7] | ED50 ([2]; mice, from dose probit curve, read-out: ED50)
C=CCOc1ccc2nccc([C@H](O)[C@H]3C[C@@H]4CCN3C[C@@H]4C=C)c2c1 [6'-Allylcinchonine, 6'-Allyloxycinchonine] | 215. ± 9 seconds | 261. ± 11 seconds | – | – | – | – | – | – | –
C=C[C@H]1CN2CC[C@H]1C[C@@H]2[C@@H](O)c1ccnc2ccc(OCc3ccccc3)cc12 [6-Benzylcinchonine, 6'-Benzyloxycinchonine] | 195. ± 8 seconds | 217. ± 6 seconds | – | – | – | – | – | – | –
C=CC1CN2CCC1CC2C(O)c1ccnc2ccc(O)cc12 (stereo not shown) [Cupreidine, 6'-hydroxycinchonine] | – | – | 23.5 mg/kg | equal or superior to quinidine; also recorded: comparable to that of quinidine | 304 mg/kg | greatly reduced toxicity | 198. ± 8 seconds | 250. ± 22 seconds | –
C=C[C@H]1C[N@@]2CC[C@H]1C[C@@H]2[C@@H](O)c1ccnc2ccc(OC)cc12 [Quinidine, reference compound] | – | – | – | – | 202 mg/kg | – | – | 294. ± 44 seconds | 22.4 mg/kg
